The data set has as its target Cav1.2 (voltage-dependent L-type calcium channel subunit alpha-1C) (Homo sapiens, UniProt Q13936). Briefly: Inhibition of human Cav1.2 expressed in HEK293 cells assessed as reduction in Ca2+ uptake at 100 uM measured as first 2 mins sampled at a frequency of one sample every second and the last 12 min at a frequency of one sample every 5 secs by fluo-3AM-based FLIPR assay. Type of data set: cell-based. The note with it: HEK293 cells that express human Cav1.2.

For orientation: inhibition means the share of the control response that was lost under treatment.

Cav1.2 (voltage-dependent L-type calcium channel subunit alpha-1C), sequence (Q13936 whole entry): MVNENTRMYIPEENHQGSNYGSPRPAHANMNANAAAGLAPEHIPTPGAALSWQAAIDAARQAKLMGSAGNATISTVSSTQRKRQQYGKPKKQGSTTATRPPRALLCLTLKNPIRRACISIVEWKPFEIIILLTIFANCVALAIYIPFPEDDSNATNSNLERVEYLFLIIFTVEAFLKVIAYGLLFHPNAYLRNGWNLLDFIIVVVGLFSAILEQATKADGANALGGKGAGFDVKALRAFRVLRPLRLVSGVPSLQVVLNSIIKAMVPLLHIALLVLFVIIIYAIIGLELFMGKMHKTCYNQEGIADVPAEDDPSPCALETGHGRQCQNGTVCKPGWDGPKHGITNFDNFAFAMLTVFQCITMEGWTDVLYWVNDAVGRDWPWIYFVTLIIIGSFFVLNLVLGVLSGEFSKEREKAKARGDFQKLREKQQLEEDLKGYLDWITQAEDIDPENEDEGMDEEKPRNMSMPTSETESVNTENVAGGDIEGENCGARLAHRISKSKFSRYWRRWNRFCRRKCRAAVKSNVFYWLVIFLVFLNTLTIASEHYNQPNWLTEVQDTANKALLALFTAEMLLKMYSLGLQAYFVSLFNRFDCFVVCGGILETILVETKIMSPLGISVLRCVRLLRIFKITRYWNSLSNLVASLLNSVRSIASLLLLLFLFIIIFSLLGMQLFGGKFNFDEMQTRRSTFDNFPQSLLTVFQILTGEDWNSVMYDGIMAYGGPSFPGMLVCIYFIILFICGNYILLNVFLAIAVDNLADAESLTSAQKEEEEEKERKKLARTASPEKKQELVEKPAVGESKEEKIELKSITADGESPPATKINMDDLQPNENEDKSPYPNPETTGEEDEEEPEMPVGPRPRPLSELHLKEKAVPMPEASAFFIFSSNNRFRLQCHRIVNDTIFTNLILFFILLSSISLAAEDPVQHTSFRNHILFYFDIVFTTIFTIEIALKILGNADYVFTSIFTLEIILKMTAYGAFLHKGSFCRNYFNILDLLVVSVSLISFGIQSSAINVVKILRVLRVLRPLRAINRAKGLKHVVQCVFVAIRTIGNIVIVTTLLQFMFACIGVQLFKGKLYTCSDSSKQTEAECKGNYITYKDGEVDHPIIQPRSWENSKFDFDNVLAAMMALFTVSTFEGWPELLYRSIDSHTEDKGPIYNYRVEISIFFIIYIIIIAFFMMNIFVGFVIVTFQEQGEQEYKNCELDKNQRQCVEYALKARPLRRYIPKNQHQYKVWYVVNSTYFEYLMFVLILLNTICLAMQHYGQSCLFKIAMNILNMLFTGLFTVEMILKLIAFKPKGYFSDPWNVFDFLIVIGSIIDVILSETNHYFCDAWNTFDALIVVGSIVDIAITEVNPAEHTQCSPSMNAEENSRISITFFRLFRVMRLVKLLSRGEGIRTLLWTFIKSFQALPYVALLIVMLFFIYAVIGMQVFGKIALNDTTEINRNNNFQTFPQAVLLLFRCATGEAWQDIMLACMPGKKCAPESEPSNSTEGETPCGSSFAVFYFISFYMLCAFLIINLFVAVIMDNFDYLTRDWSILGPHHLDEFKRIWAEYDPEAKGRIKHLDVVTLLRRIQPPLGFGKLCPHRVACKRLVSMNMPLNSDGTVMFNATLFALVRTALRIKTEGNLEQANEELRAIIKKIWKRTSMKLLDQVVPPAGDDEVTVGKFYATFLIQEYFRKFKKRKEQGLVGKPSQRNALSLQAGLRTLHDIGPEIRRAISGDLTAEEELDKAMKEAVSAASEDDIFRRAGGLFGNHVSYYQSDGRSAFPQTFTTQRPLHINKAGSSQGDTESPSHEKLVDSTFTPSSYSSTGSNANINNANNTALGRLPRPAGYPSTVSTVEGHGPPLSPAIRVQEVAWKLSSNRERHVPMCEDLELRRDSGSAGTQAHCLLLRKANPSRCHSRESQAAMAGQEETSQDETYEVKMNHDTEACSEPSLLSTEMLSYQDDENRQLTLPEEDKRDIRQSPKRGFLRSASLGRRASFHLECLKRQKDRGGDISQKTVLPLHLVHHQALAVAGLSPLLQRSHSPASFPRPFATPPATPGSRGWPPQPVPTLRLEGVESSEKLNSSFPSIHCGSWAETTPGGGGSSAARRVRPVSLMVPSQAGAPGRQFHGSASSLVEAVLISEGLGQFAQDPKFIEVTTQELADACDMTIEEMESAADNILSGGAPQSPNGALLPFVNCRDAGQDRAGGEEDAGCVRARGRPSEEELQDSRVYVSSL

On to `CCOC(=O)C1=C(C)NC(=S)NC1c1cccc(O)c1` (stereo unspecified) [MONASTROL], for which the inhibition at 100 µM was found to be 70%.

(Values after ChEMBL document CHEMBL4138169, “Biological activity of dihydropyrimidinone (DHPM) derivatives: A systematic review” (Eur J Med Chem, 2018).)
